# Measurements published in patent US20250241310A1, “METHODS AND COMPOSITION FOR CONTROLLING PESTS” (UPL CORPORATION LIMITED, priority 2021, published 2025).
# Key:
# Type in all cases: in vivo
# [1] = test system: seed corn maggot (Delia platura); assay: Field trial, seed treatment, pest severity of seed corn maggot
# Experimental: Trials were carried out in field to assess efficacy of flupyrimin against seed corn maggot (Delia platura). Seeds were treated with flupyrimin before sowing. Evaluation was done to evaluate pest severity of said insects at different dosage. Soil Texture=fine sandy loam, pH=7, OM %=0.8.
# [2] = test system: Corn leafhopper (Dalbulus maidis); assay: Field trial, % control of adult corn leafhopper per plant
# Experimental: Trials were carried out in field to assess efficacy of flupyrimin against Corn leafhopper (Dalbulus maidis). Evaluation was done to check % control of adult insects per plant at different dosage at 3 days after emergence and 7 days after emergence.
# [3] = test system: corn rootworm (Diabrotica virgifera virgifera); assay: Field trial, seed treatment, efficacy against corn rootworm (% control and root damage index); settings: for Damage Index: scale 1-6, corn roots
# Experimental: Trials were carried out in field to assess efficacy of flupyrimin against corn rootworm (Diabrotica virgifera virgifera). Seeds were treated with flupyrimin before sowing. Evaluation was done to check % control of said insects at different dosage. Soil Texture=clay loam, pH=6.89, OM %=3.29.
# Further, the damage index (Scale 1-6) at different concentrations was evaluated.
# Assessment of the amount of damage by larval feeding of D. virgifera on corn roots were made by digging out the root system taking a diameter of approximately 25 cm to a depth of 15 cm. The root systems were then washed so that all crown roots were fairly clean. Damage on the root systems was assessed on 10 plants per plot (40 plants per treatment) using a scale as the following: • 1.0=no feeding damage; • 1.5=visible feeding scars present (not illustrated, but similar to a rating of two); • 2.0=up to three roots pruned slightly; • 2.5=more than three roots pruned, but none chewed to within 4 cm of plant; • 3.0=one to three roots chewed to within 4 cm of plant; • 3.5=more than three roots chewed to within 4 cm of plant; • 4.0=one entire node or equivalent number of roots destroyed • 4.5=about 1.5 nodes destroyed • 5.0=two nodes destroyed • 5.5=about 2.5 nodes destroyed • 6.0=three or more nodes completely destroyed (not illustrated, but similar to a rating of five)
# [4] = test system: fall army worm (Spodoptera frugiperda); assay: Field trial in corn plantation, % control of fall army worm, flupyrimin alone
# Experimental: Trials were carried out in the field to assess efficacy of flupyrimin against fall army worm (Spodoptera frugiperda) in corn plantation. Evaluation was done to check % control of said insects at different dosage for 3, 7, 10, 14 DAA for 1st application and 3, 7, 10, 14, 21, 28, 35, and 42 DAA for 2nd application. The rate of application was 500 lit/ha.
compound,measurement,setting,value
"O=C(/N=c1\ccccn1Cc1ccc(Cl)nc1)C(F)(F)F [Flupyrimin, N-[(E)-1-(6-chloro-3-pyridinylmethyl)pyridin-2 (1H)-ylidene]-2,2,2-trifluoroacetamide]",Pest severity,"[1]; 100 g/100 kg of seeds, 14 DP",0.2
same,Pest severity,"[1]; 100 g/100 kg of seeds, 28 DP",4.3
same,Pest severity,"[1]; 100 g/100 kg of seeds, 35 DP",4.8
same,Pest severity,"[1]; 100 g/100 kg of seeds, 42 DP",5.9
same,Pest severity,"[1]; 200 g/100 kg of seeds, 14 DP",0
same,Pest severity,"[1]; 200 g/100 kg of seeds, 28 DP",0.7
same,Pest severity,"[1]; 200 g/100 kg of seeds, 35 DP",0.9
same,Pest severity,"[1]; 200 g/100 kg of seeds, 42 DP",1.8
same,Pest severity,"[1]; 300 g/100 kg of seeds, 14 DP",0
same,Pest severity,"[1]; 300 g/100 kg of seeds, 28 DP",0.3
same,Pest severity,"[1]; 300 g/100 kg of seeds, 35 DP",0.5
same,Pest severity,"[1]; 300 g/100 kg of seeds, 42 DP",0.9
same,Pest severity,"[1]; 400 g/100 kg of seeds, 14 DP",0
same,Pest severity,"[1]; 400 g/100 kg of seeds, 28 DP",0.3
same,Pest severity,"[1]; 400 g/100 kg of seeds, 35 DP",0.5
same,Pest severity,"[1]; 400 g/100 kg of seeds, 42 DP",1.1
same,Pest severity,"[1]; 500 g/100 kg of seeds, 14 DP",0
same,Pest severity,"[1]; 500 g/100 kg of seeds, 28 DP",0
same,Pest severity,"[1]; 500 g/100 kg of seeds, 35 DP",0
same,Pest severity,"[1]; 500 g/100 kg of seeds, 42 DP",0.3
same,efficacy against seed corn maggot (in words),[1]; summary of Table 3,effective
same,% Control,"[2]; 100 g ai/100 kg, rate 0.2 Kg-L/ha, 3 DAE",65%
same,% Control,"[2]; 100 g ai/100 kg, rate 0.2 Kg-L/ha, 7 DAE",50%
same,% Control,"[2]; 200 g ai/100 kg, rate 0.4 Kg-L/ha, 3 DAE",50.91%
same,% Control,"[2]; 200 g ai/100 kg, rate 0.4 Kg-L/ha, 7 DAE",45.83%
same,% Control,"[2]; 300 g ai/100 kg, rate 0.6 Kg-L/ha, 3 DAE",86.93%
same,% Control,"[2]; 300 g ai/100 kg, rate 0.6 Kg-L/ha, 7 DAE",47.02%
same,% Control,"[2]; 500 g ai/100 kg, rate 1.0 Kg-L/ha, 3 DAE",80%
same,% Control,"[2]; 500 g ai/100 kg, rate 1.0 Kg-L/ha, 7 DAE",63.69%
same,control of corn leafhopper (in words),[2]; summary of Table 4,good control
same,Damage Index,[3]; 100 g/100 kg of seeds,2.3
same,Damage Index,[3]; 200 g/100 kg of seeds,1.8
same,Damage Index,[3]; 300 g/100 kg of seeds,1.1
same,Damage Index,[3]; 400 g/100 kg of seeds,1
same,Damage Index,[3]; 500 g/100 kg of seeds,1
same,% Control,[3]; seed treatment 100 g/100 kg of seeds,49.39%
same,% Control,[3]; seed treatment 200 g/100 kg of seeds,70.4%
same,% Control,[3]; seed treatment 300 g/100 kg of seeds,96.38%
same,% Control,[3]; seed treatment 400 g/100 kg of seeds,99.36%
same,% Control,[3]; seed treatment 500 g/100 kg of seeds,100%
same,insect control against corn rootworm (in words),[3]; summary of Table 1,good insect control
same,reduction of root damage (in words),"[3]; summary of Table 2, different concentrations",efficacious in reducing the damage
same,% Control,"[4]; post 1st application, 150 g a.i./ha, 3 DAA",27.8%
same,% Control,"[4]; post 1st application, 150 g a.i./ha, 7 DAA",29.1%
same,% Control,"[4]; post 1st application, 150 g a.i./ha, 10 DAA",28.1%
same,% Control,"[4]; post 1st application, 150 g a.i./ha, 14 DAA",24.4%
same,% Control,"[4]; post 1st application, 200 g a.i./ha, 3 DAA",32.8%
same,% Control,"[4]; post 1st application, 200 g a.i./ha, 7 DAA",34.1%
same,% Control,"[4]; post 1st application, 200 g a.i./ha, 10 DAA",33.7%
same,% Control,"[4]; post 1st application, 200 g a.i./ha, 14 DAA",29.5%
same,% Control,"[4]; post 1st application, 250 g a.i./ha, 3 DAA",38.1%
same,% Control,"[4]; post 1st application, 250 g a.i./ha, 7 DAA",40.1%
same,% Control,"[4]; post 1st application, 250 g a.i./ha, 10 DAA",36.7%
same,% Control,"[4]; post 1st application, 250 g a.i./ha, 14 DAA",32.9%
same,% Control,"[4]; post 2nd application, 150 g a.i./ha, 3 DAA",28.3%
same,% Control,"[4]; post 2nd application, 150 g a.i./ha, 7 DAA",30.4%
same,% Control,"[4]; post 2nd application, 150 g a.i./ha, 10 DAA",31.8%
same,% Control,"[4]; post 2nd application, 150 g a.i./ha, 14 DAA",32.6%
same,% Control,"[4]; post 2nd application, 150 g a.i./ha, 21 DAA",29.9%
same,% Control,"[4]; post 2nd application, 150 g a.i./ha, 28 DAA",28.9%
same,% Control,"[4]; post 2nd application, 150 g a.i./ha, 35 DAA",27.3%
same,% Control,"[4]; post 2nd application, 150 g a.i./ha, 42 DAA",27.1%
same,% Control,"[4]; post 2nd application, 200 g a.i./ha, 3 DAA",35.6%
same,% Control,"[4]; post 2nd application, 200 g a.i./ha, 7 DAA",35.3%
same,% Control,"[4]; post 2nd application, 200 g a.i./ha, 10 DAA",36.3%
same,% Control,"[4]; post 2nd application, 200 g a.i./ha, 14 DAA",35.3%
same,% Control,"[4]; post 2nd application, 200 g a.i./ha, 21 DAA",34.5%
same,% Control,"[4]; post 2nd application, 200 g a.i./ha, 28 DAA",34.5%
same,% Control,"[4]; post 2nd application, 200 g a.i./ha, 35 DAA",33.7%
same,% Control,"[4]; post 2nd application, 200 g a.i./ha, 42 DAA",33.3%
same,% Control,"[4]; post 2nd application, 250 g a.i./ha, 3 DAA",41.4%
same,% Control,"[4]; post 2nd application, 250 g a.i./ha, 7 DAA",42.7%
same,% Control,"[4]; post 2nd application, 250 g a.i./ha, 10 DAA",43.7%
same,% Control,"[4]; post 2nd application, 250 g a.i./ha, 14 DAA",44.4%
same,% Control,"[4]; post 2nd application, 250 g a.i./ha, 21 DAA",41.4%
same,% Control,"[4]; post 2nd application, 250 g a.i./ha, 28 DAA",38.8%
same,% Control,"[4]; post 2nd application, 250 g a.i./ha, 35 DAA",38.1%
same,% Control,"[4]; post 2nd application, 250 g a.i./ha, 42 DAA",37.9%
